Laboratory results as given in patent US20180237362A1, “NOVEL POLYGODIAL ANALOGS FOR THE TREATMENT OF CANCER AND OTHER PROLIFERATIVE DISEASES” (THE BOARD OF REGENTS OF THE UNIVERSITY OF TAXAS SYSTEM, priority 2015, published 2018).
Like-named read-outs stand apart in the source and are kept apart here.

Experiments:
[1] = system: human U373 glioblastoma (GBM); test: MTT antiproliferative assay, U373; assay type: cell-based; conditions: 72 h treatment, sextuplicates, read-out: GI50 in vitro values, U373
Protocol: (§1) Human mammary carcinoma MCF-7 (ATCC HTB22) cells were cultured in RPMI supplemented with 10% FBS. The U87 cells (ATCC HTB-14) were cultured in DMEM culture medium, while the A549 cells (DSMZ ACC107) were cultured in RPMI culture medium supplemented with 10% heat-inactivated FBS. The GBM Hs683 (ATCC HTB-138) cells were cultivated in DMEM supplemented with 10% FBS. The human uterine sarcoma MES-SA (ATCC CRL1966) and MES-SA/D×5 cells were cultured in RPMI-1640 medium supplemented with 10% FBS with MES SA/D×5 maintained in the presence of 500 nM Doxorubicin (Sigma). SKMEL-28 cells (ATCC HTB72) and U373 GBM cells (ECACC 08061901) were cultured in RPMI culture medium supplemented with 10% heat-inactivated FBS. Cell culture media were supplemented with 4 mM glutamine (Lonza code BE17-605E), 100 μg/mL gentamicin (Lonza code 17-5182), and penicillin-streptomycin (200 units/ml and 200 μg/ml) (Lonza code 17-602E). The MDA-MB-231 (ATCC HTB-26) epithelial mammary adenocarcinoma cells were cultured in Eagle's minimum essential medium (EMEM; Invitrogen) containing 5% fetal calf serum (FCS, Cambrex), 2 mM L-glutamine (Invitrogen), 0.06% HEPES (Invitrogen) and penicillin (50 IU/ml)/streptomycin (50 µg/ml; Invitrogen) at 37° C. in a humidified atmosphere of 5% CO2 in air. Transformed mouse NPCs were cultured in suspension under neurosphere conditions at 37° C. in a humidified atmosphere of […] and 5% CO2 in DMEM F12 (Invitrogen 11320-074) supplemented with 1×B27 supplement (Invitrogen 17504-044), 5% penicillin-streptomycin (Biochrom 10378-017), 10 ng/ml EGF (R&D systems 236-EG), 10 ng/ml FGF (PeproTech 100-18B).
(§2) Antiproliferative properties of the synthesized compounds were evaluated by the MTT assay. All compounds were dissolved in DMSO at a concentration of either 100 μM or 50 μM prior to cell treatment. The cells were trypsinized and seeded at various cell concentrations depending on the cell type. The cells were grown for 24 h to 72 h, treated with compounds at concentrations ranging from 0.001 to 100 μM and incubated for 48 or 72 h in 100 or 200 μL media depending on the cell line used. The number of experiments and replicates varied depending on the cell line. Cells treated with 0.1% DMSO were used as a negative control; 1 μM PAO was used as a positive control.
(§3) The synthesized C12-Wittig derivatives were evaluated for antiproliferative activities in a panel of cancer cell lines that included apoptosis-resistant human U373 glioblastoma (GBM) (Lefranc et al., 2013), human A549 non-small cell lung cancer (NSCLC) and human SKMEL-28 melanoma (Mathieu et al., 2009) as well as apoptosis-sensitive human Hs683 anaplastic oligodendroglioma (Lefranc et al., 2013) and human MCF-7 breast cancer (Frolova et al., 2013).

HeLa-derived tumors = test: Mouse xenograft model, HeLa; assay type: in vivo, athymic nude mice; conditions: for anti-tumor effect, HeLa-derived tumors: 40 μg/100 μl intra-tumor injection every other day for 18 days, polygodial significantly more efficacious than P3; for adverse effects, HeLa xenograft mice: intra-tumor injection every other day for 18 days
Protocol: Six-week old female athymic nude mice were used in laminar air-flow cabinet in pathogen-free conditions. They were acclimated for one week prior to the start of the study and kept at controlled temperature and humidity, with food and water. Mice were injected subcutaneously in the flank with 2×10^6 Cal27 cells or HeLa cells in 0.1 mL of sterile PBS. When the tumors reached 100 mm^3 (Cal27) and 150 mm^3 (HeLa), the mice were stratified into 4 groups, […], polygodial, P10, P3 and P27 at the concentrations noted in the figure legends.

HeLa cells = test: Calcium imaging, HeLa; assay type: cell-based, human
human SKMEL-28 melanoma = test: MTT antiproliferative assay, SKMEL-28; assay type: cell-based; conditions: sextuplicates, read-out: GI50 in vitro values, SKMEL-28
Protocol: as §1, §2, §3

[2] = system: MDA-MB-231 breast cancer cells expressing TRPV1; test: Intracellular Ca2+ measurements, MDA-MB-231; assay type: cell-based, human; conditions: 1 at 80 μM, 5 at 20 μM; Fura-2
Protocol: Human mammary carcinoma MCF-7 (ATCC HTB22) cells were cultured in RPMI supplemented with 10% FBS. The U87 cells (ATCC HTB-14) were cultured in DMEM culture medium, while the A549 cells (DSMZ ACC107) were cultured in RPMI culture medium supplemented with 10% heat-inactivated FBS. The GBM Hs683 (ATCC HTB-138) cells were cultivated in DMEM supplemented with 10% FBS. The human uterine sarcoma MES-SA (ATCC CRL1966) and MES-SA/D×5 cells were cultured in RPMI-1640 medium supplemented with 10% FBS with MES SA/D×5 maintained in the presence of 500 nM Doxorubicin (Sigma). SKMEL-28 cells (ATCC HTB72) and U373 GBM cells (ECACC 08061901) were cultured in RPMI culture medium supplemented with 10% heat-inactivated FBS. Cell culture media were supplemented with 4 mM glutamine (Lonza code BE17-605E), 100 μg/mL gentamicin (Lonza code 17-5182), and penicillin-streptomycin (200 units/ml and 200 μg/ml) (Lonza code 17-602E). […]
Intracellular Ca^2+ measurements. Cells were grown on glass coverslips for fluorescence imaging. The cytosolic calcium was measured using Fura-2-loaded cells. […] Fluorescence was excited at 350 and 380 nm alternately using a monochromator (Polychrome IV; TILL Photonics, Planegg, Germany), and captured by a Cool SNAP HQ camera (Princeton Instruments, France) after filtration through a long-pass filter (510 nm). […]

[3] = system: panel of cancer cell lines (A549, SKMEL-28, MCF-7, U373, Hs683); test: MTT antiproliferative assay, panel of five cancer cell lines; assay type: cell-based, human; conditions: for GI50: mean over five cell lines, 72 h treatment, MTT assay, read-out: GI50 in vitro values, Mean + SEM
Protocol: as §2, §3

OSCC cell line HSC3 = test: Cell viability (Cell Titer 96 Aqueous), HSC3; assay type: cell-based, human; conditions: for reversal of cytotoxicity by N-acetyl-cysteine: 60 μM compound ± 10 mM NAC; for cancer cell viability, HSC3: 48 hours, potency order P10, polygodial, P3
From the text: Human cancer cell lines were obtained from the American Type Culture Collection (ATCC, Manassas, Va., USA), the European Collection of Cell Culture (ECACC, Salisbury, UK) and the Deutsche Sammlung von Mikroorganismen und Zellkulturen (DSMZ, Braunschweig, Germany). The OSCC cell lines, Cal27 and HSC3 are derived from human primary tongue tumor. Cal27 cells were obtained from the American Type Culture Collection (Rockville, Md.). HSC3 cells were provided by Dr. Brian Schmidt. HeLa cells (cervical cancer cell line) were obtained from ATCC. Cells were cultured in DMEM, containing 10% FBS and 1% penicillin-streptomycin media, at 37° C. in 5% CO2. All cells were authenticated by Genetic DNA Laboratories.
The cytotoxicity of polygodial, P10, P3, and P27 in Cal27, HSC3, and HeLa cells was examined in vitro using a colorimetric assay, Cell Titer 96® Aqueous Non-Radioactive Cell Proliferation Assay. […] GraphPad Prism4 was used to perform statistical analysis.

| Structure (SMILES) | GI50 [1] [µM] | anti-tumor effect, HeLa-derived tumors (HeLa-derived tumors) | adverse effects, HeLa xenograft mice (HeLa-derived tumors) | calcium influx, HeLa (HeLa cells; polygodial 80 μM, P10 4 μM, P3 50 μM) | GI50 (human SKMEL-28 melanoma; 72 h treatment) [µM] | [Ca2+]i response [2] | resistant populations in growth curves ([3]; all 5 cultures, concentrations just slightly exceeding GI50, close to 0% cell viability) | GI50 [3] [µM] | reversal of cytotoxicity by N-acetyl-cysteine (OSCC cell line HSC3) | cancer cell viability, HSC3 (OSCC cell line HSC3) | GI50 ([1]; Homo sapiens, U373 MG) [µM] | reversal of calcium influx by capsazepine, HeLa (HeLa cells; CPZ 10 μM) | GI50 (human SKMEL-28 melanoma; Homo sapiens, SK-MEL-28, 72 h treatment) [µM] | antiproliferative activity in the cancer cell panel ([3]; 72-hour treatment) | GI50 ([3]; Homo sapiens) [µM] |
| --- | --- | --- | --- | --- | --- | --- | --- | --- | --- | --- | --- | --- | --- | --- | --- |
| COC(=O)/C=C/C1=CC[C@H]2C(C)(C)CCC[C@]2(C)[C@H]1C=O [Compound 5] | 22 | significant anti-tumor effects | No observable adverse effects | did not induce calcium influx | 27 | sustained and asynchronous [Ca^2+] increases | absence of resistant populations | 20 ± 3 | Cytotoxicity was reversible | reduced cancer cell viability in vitro | – | – | – | – | – |
| CC1(C)CCC[C@]2(C)[C@@H](C=O)C(C=O)=CC[C@@H]12 [Compound 1, Polygodial] | – | significant anti-tumor effects | marked inflammatory response | – | – | transient and synchronous [Ca^2+]i increase | – | – | Cytotoxicity was reversible | reduced cancer cell viability in vitro | > 99 | CPZ did not fully reverse calcium influx | 65 | ineffective | > 85 |
